assay: Henry solubility constant Hcp at 298.15 K (mol/(m3 Pa)); details: reference: Destaillats and Charles (2002)

Structure (SMILES) | Henry solubility constant Hcp
c1ccc(-c2ccccc2)cc1 [biphenyl] | 0.034
CCCCCCCCC/C=N/OCc1c(F)c(F)c(F)c(F)c1F [PFBHA-decanal] | 0.024
Fc1c(F)c(F)c(CON=CC=NOCc2c(F)c(F)c(F)c(F)c2F)c(F)c1F [PFBHA-ethanedial] | 0.016
c1ccc2ccccc2c1 [naphthalene] | 0.024
Fc1c(F)c(F)c(CO/N=C/c2ccccc2)c(F)c1F [PFBHA-benzaldehyde] | 0.005
CC=NOCc1c(F)c(F)c(F)c(F)c1F [PFBHA-ethanal] | 0.019
CCCCCCC/C=N/OCc1c(F)c(F)c(F)c(F)c1F [PFBHA-octanal] | 0.0079
CCCCC/C=N/OCc1c(F)c(F)c(F)c(F)c1F [PFBHA-hexanal] | 0.0058
C/C=C/C=N/OCc1c(F)c(F)c(F)c(F)c1F [PFBHA-crotonaldehyde] | 0.0068
C=C/C=N/OCc1c(F)c(F)c(F)c(F)c1F [PFBHA-propenal] | 0.0095
CC(C)=NOCc1c(F)c(F)c(F)c(F)c1F [PFBHA-propanone] | 0.011
Cc1ccccc1 [methylbenzene] | 0.002
C=NOCc1c(F)c(F)c(F)c(F)c1F [PFBHA-methanal] | 0.016
CC/C(C)=N\OCc1c(F)c(F)c(F)c(F)c1F [PFBHA-butanone] | 0.0047

From Sander's compilation of Henry's law constants (doi:10.1021/je025545i)
